These are literature values, as cited in patent US8211035B2, “System and method for monitoring health using exhaled breath” (University of Florida Research Foundation, Inc., priority 2002, dated 2012).

Molecules are shown by their SMILES.

On to `CC(C)c1cccc(C(C)C)c1O` [propofol, 2,6-diisopropylphenol], for which the “dose recovered in urine as hydroxylated and conjugated metabolites” value is 88%.
